This assay concerns the target T1, C5a receptor (Homo sapiens, UniProt P21730).
T1 construct: endogenous in cells; host or cells: U937 cells differentiated with 1 mM dibutyryl cAMP
T1 sequence (P21730 1-350): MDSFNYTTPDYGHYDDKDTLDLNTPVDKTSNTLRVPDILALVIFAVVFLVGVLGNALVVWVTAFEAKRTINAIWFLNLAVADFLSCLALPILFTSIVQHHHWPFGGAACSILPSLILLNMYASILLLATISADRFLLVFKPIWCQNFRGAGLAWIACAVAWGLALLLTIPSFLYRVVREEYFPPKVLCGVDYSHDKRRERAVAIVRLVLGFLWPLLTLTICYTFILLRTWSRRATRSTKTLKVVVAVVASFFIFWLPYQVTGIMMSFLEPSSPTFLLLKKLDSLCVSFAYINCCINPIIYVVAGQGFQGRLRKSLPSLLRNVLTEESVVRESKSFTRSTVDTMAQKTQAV
Briefly: standard assay of C5a receptor mediated calcium mobilization. The class given is cell-based. The settings on record: asterisk = tested in C5a receptor mediated calcium mobilization assay, read-out: Ca2+ Mob. How it is done: U937 cells are grown in differentiation media (1 mM dibutyrl cAMP in RPMI 1640 medium containing 10% fetal bovine serum) for 48 hrs at 37° C. then reseeded onto 96-well plates suitable for use in a FLIPR™ Plate Reader (Molecular Devices Corp., Sunnyvale Calif.). Cells are grown an additional 24 hours (to 70-90% confluence) before the assay. The cells are then washed once with Krebs Ringer solution. FLUO-3 calcium sensitive dye (Molecular Probes, Inc. Eugene, Oreg.) is added to 10 μg/mL and incubated with the cells at room temperature for 1 to 2 hours. The 96 well plates are then washed to remove excess dye. Fluorescence responses, measured by excitation at 480 nm and emission at 530 nm, are monitored upon the addition of human C5a to the cells to a final concentration of 0.01-30.0 nM, using the FLIPR™ device (Molecular Devices).
The calcium mobilization assay described above may be readily adapted for identifying test compounds that have agonist or antagonist activity at the human C5a receptor.
For example, in order to identify antagonist compounds, differentiated U937 cells are washed and incubated with Fluo-3 dye as described above. One hour prior to measuring the fluorescence signal, a subset of the cells is incubated with 1 μM of at least one compound to be tested. The fluorescence response upon the subsequent addition of 0.3 nM (final concentration) human recombinant C5a is monitored using the FLIPR™ plate reader. Antagonist compounds elicit at least a 2-fold decrease in the fluorescence response relative to that measured in the presence of human C5a alone. Preferred antagonist compounds elicit at least a 5-fold, preferably at least a 10-fold, and more preferably at least a 20-fold decrease in the fluorescence response relative to that measured in the presence of human C5a alone.
For orientation: Calcium flux is commonly read through the fluorescence of an indicator in the cells.

Molecules are shown by their SMILES. Read-outs that look alike come from different tables or passages of the source. A value given as a limit tells only on which side of the number the result lay.

For the molecule `COc1ccccc1-c1ccccc1C(=O)N(Cc1ccccc1)Cc1ccccc1` [compound 43, N,N-dibenzyl-2′-methoxy-1,1′-biphenyl-2-carboxamide], the Ki (Table I) is under 1000 nM.

`O=C(c1ccccc1-c1ccccc1)N(Cc1ccc(F)cc1)C1Cc2ccccc2C1` [compound 76, N-(indan-2-yl)-N-(4-fluorobenzyl)-1,1′-biphenyl-2-carboxamide]: where the note is “Table I”, the Ki is under 1000 nM.

Take `O=C(c1ccccc1-c1ccccc1)N(Cc1ccc2c(c1)OCO2)C1Cc2ccccc2C1` [compound 79, N-(1,3-benzodioxol-5-ylmethyl)-N-(indan-2-yl)-1,1′-biphenyl-2-carboxamide]: the Ki (Table I) is under 1000 nM. Consider `O=C(c1ccccc1-c1ccsc1)N(Cc1cccc(-c2ccsc2)c1)C1Cc2ccccc2C1` [compound 85, N-(indan-2-yl)-2-thien-3-yl-N-(3-thien-3-ylbenzyl)benzamide], for which the Ki (Table I) is under 1000 nM.

Consider `O=C(c1cc(Cl)ccc1-c1ccsc1)N(Cc1ccccc1)C1Cc2ccccc2C1` [compound 119, N-benzyl-5-chloro-N-(indan-2-yl)-2-thien-3-ylbenzamide], for which, where the note is “Table I”, the Ki was under 1000 nM. The same measure, in the same setting: as for `Cc1ccc(-c2ccsc2)c(C(=O)N(Cc2ccccc2)C2Cc3ccccc3C2)c1` [compound 118, N-benzyl-N-(indan-2-yl)-5-methyl-2-thien-3-ylbenzamide], the figure is under 1000 nM; as for `Cc1ccccc1CN(C(=O)c1cc(Cl)ccc1-c1ccccc1)C1Cc2ccccc2C1` [compound 131, 4-chloro-N-(indan-2-yl)-N-(2-methylbenzyl)-1,1′-biphenyl-2-carboxamide], under 1000 nM; as for `Cc1ccc(-c2ccccc2C(=O)N(Cc2ccccc2)C2Cc3ccccc3C2)cc1` [compound 58, N-benzyl-N-(indan-2-yl)4′-methyl-1,1′-biphenyl-2-carboxamide], under 1000 nM. The same measure, in the same setting: as for `COc1ccc(CN(C(=O)c2cc(Cl)ccc2-c2ccccc2)C2Cc3ccccc3C2)cc1` [compound 138, 4-chloro-N-(indan-2-yl)-N-(4-methoxybenzyl)-1,1′-biphenyl-2-carboxamide], the figure is under 1000 nM. `COc1ccc(CN(C(=O)c2c(C)cccc2-c2ccccc2)C2Cc3ccccc3C2)cc1` [compound 128, N-(indan-2-yl)-N-(4-methoxybenzyl)-3-methyl-1,1′-biphenyl-2-carboxamide]: the Ki (Table I) was under 1000 nM.

For `COc1ccc(-c2ccccc2)c(C(=O)N(Cc2ccccc2C)C2Cc3ccccc3C2)c1` [compound 105, N-(indan-2-yl)-4-methoxy-N-(2-methylbenzyl)-1,1′-biphenyl-2-carboxamide], the Ki (Table I) is under 1000 nM.

As for `CCSc1ccc(-c2ccccc2C(=O)N(Cc2ccccc2)Cc2ccccc2)cc1` [compound 38, N,N-dibenzyl-4′-(ethylthio)-1,1′-biphenyl-2-carboxamide], the Ki (Table I) is under 1000 nM. Take `Cc1cccc(-c2ccccc2)c1C(=O)N(CCc1ccccc1)C1Cc2ccccc2C1` [compound 130, N-(indan-2-yl)-3-methyl-N-(2-phenylethyl)-1,1′-biphenyl-2-carboxamide]: where the note is “Table I”, the Ki is under 1000 nM. With `COc1ccc2ccccc2c1C(=O)N(Cc1ccccc1C)C1Cc2ccccc2C1` [compound 224, 2-Methoxy-naphthalene-1-carboxylic acid (2-methyl-benzyl)-indan-2-yl-amide], for the setting “Table III”, the Ki was under 1000 nM. Take `COc1ccc(-c2ccccc2)c(C(=O)N(Cc2ccccc2F)C2Cc3ccccc3C2)c1` [compound 108, N-(indan-2-yl)-N-(2-fluorobenzyl)-4-methoxy-1,1′-biphenyl-2-carboxamide]: under “Table I”, the Ki was under 1000 nM. Regarding `CC(=O)Nc1cccc(-c2ccccc2C(=O)N(Cc2ccccc2)Cc2ccccc2)c1` [compound 35, 3′-(acetylamino)-N,N-dibenzyl-1,1′-biphenyl-2-carboxamide], the Ki (Table I) is under 1000 nM. For the molecule `Cc1ccc2c(c1)CC(N(Cc1ccccc1)C(=O)c1ccccc1-c1ccccc1)C2` (stereo not drawn) [compound 72, N-benzyl-N-(5-methyl-indan-2-yl)-1,1′-biphenyl-2-carboxamide], the Ki (Table I) was under 1000 nM. On the same count and under the same terms, for `COc1cccc(-c2ccccc2C(=O)N(Cc2ccccc2)C2Cc3ccccc3C2)c1` [compound 62, N-benzyl-N-(indan-2-yl)-3′-methoxy-1,1′-biphenyl-2-carboxamide] the value was under 1000 nM. Still for that read-out and setting: for `COc1ccccc1CN(C(=O)c1ccccc1-c1ccsc1)C1Cc2ccccc2C1` [compound 81, N-(indan-2-yl)-N-(2-methoxybenzyl)-2-thien-3-ylbenzamide] the value was under 1000 nM. On to `Cc1ccc(CN(C(=O)c2ccccc2-c2ccccc2)C2Cc3ccccc3C2)cc1` [compound 75, N-(indan-2-yl)-N-(4-methylbenzyl)-1,1′-biphenyl-2-carboxamide], for which, where the note is “Table I”, the Ki is under 1000 nM. Same read-out and setting: as for `Cc1csc(-c2ccccc2C(=O)N(Cc2ccccc2)C2Cc3ccccc3C2)c1` [compound 59, N-benzyl-N-(indan-2-yl)-2-(4-methylthien-2-yl)benzamide], the figure is under 1000 nM; as for `O=C(c1ccccc1-c1ccccc1F)N(Cc1ccccc1)C1CCc2ccccc21` (stereo not drawn) [compound 61, N-benzyl-N-(indan-1-yl)-2′-fluoro-1,1′-biphenyl-2-carboxamide], under 1000 nM. The same measure, in the same setting: as for `COc1ccc(-c2ccccc2)c(C(=O)N(Cc2ccc(F)c(F)c2)C2Cc3ccccc3C2)c1` [compound 111, N-(3,4-difluorobenzyl)-N-(indan-2-yl)-4-methoxy-1,1′-biphenyl-2-carboxamide], the figure is under 1000 nM; as for `O=C(c1cc(O)ccc1-c1ccccc1)N(Cc1ccccc1)C1Cc2ccccc2C1` [compound 68, N-benzyl-N-(indan-2-yl)-4-hydroxy-1,1′-biphenyl-2-carboxamide], under 1000 nM; as for `COc1ccc(-c2ccccc2)c(C(=O)N(Cc2cccc(C)c2)C2Cc3ccccc3C2)c1` [compound 106, N-(indan-2-yl)-4-methoxy-N-(3-methylbenzyl)-1,1′-biphenyl-2-carboxamide], under 1000 nM. The same measure, in the same setting: for `COc1cccc(CN(C(=O)c2c(OC)cccc2-c2ccccc2)C2Cc3ccccc3C2)c1` [compound 101, N-(indan-2-yl)-3-methoxy-N-(3-methoxybenzyl)-1,1′-biphenyl-2-carboxamide] the value was under 1000 nM.

On to `O=C(c1ccccc1-c1ccccc1F)N(Cc1cccc(F)c1)C1Cc2ccccc2C1` [compound 96, N-(indan-2-yl)-2′-fluoro-N-(3-fluorobenzyl)-1,1′-biphenyl-′-carboxamide], for which the Ki (Table I) was under 1000 nM. For the molecule `O=C(c1ccccc1-c1ccc(C(F)(F)F)cc1)N(Cc1ccccc1)Cc1ccccc1` [compound 42, N,N-dibenzyl-4′-(trifluoromethyl)-1,1′-biphenyl-2-carboxamide], under “Table I”, the Ki is under 1000 nM. On to `Cc1ccc(-c2cccc(F)c2C(=O)N(Cc2ccccc2)C2Cc3ccccc3C2)s1` [compound 114, N-benzyl-N-(indan-2-yl)-2-fluoro-6-(5-methylthien-2-yl)benzamide], for which the Ki (Table I) is under 1000 nM. With `CSc1ccccc1-c1ccccc1C(=O)N(Cc1ccccc1)Cc1ccccc1` [compound 37, N,N-dibenzyl-2′-(methylthio)-1,1′-biphenyl-2-carboxamide], the Ki (Table I) is under 1000 nM.

Consider `O=C(c1ccccc1-c1cccc(Cl)c1Cl)N(Cc1ccccc1)Cc1ccccc1` [compound 51, N,N-dibenzyl-2′,3′-dichloro-1,1′-biphenyl-2-carboxamide], for which, under “Table I”, the Ki is under 1000 nM. On the same count and under the same terms, for `Cc1ccc(-c2ccccc2)c(C(=O)N(Cc2ccccc2)C2Cc3ccccc3C2)c1` [compound 116, N-benzyl-N-(indan-2-yl)-4-methyl-1,1′-biphenyl-2-carboxamide] the value was under 1000 nM; for `Cc1cccc(CN(C(=O)c2c(C)cccc2-c2ccccc2)C2Cc3ccccc3C2)c1` [compound 121, N-(indan-2-yl)-3-methyl-N-(3-methylbenzyl)-1,1′-biphenyl-2-carboxamide], under 1000 nM. `COc1cccc(CN(C(=O)c2cc(Cl)ccc2-c2ccccc2)C2Cc3ccccc3C2)c1` [compound 140, 4-chloro-N-(indan-2-yl)-N-(3-methoxybenzyl)-1,1′-biphenyl-2-carboxamide]: where the note is “Table I”, the Ki is under 1000 nM. The same measure, in the same setting: for `O=C(c1ccccc1-c1ccccc1)N(Cc1ccccc1)Cc1ccccc1` [compound 47, N,N-dibenzyl-1,1′-biphenyl-2-carboxamide] the value was under 1000 nM; for `O=C(c1ccccc1-c1cc(Cl)cc(Cl)c1)N(Cc1ccccc1)Cc1ccccc1` [compound 56, N,N-dibenzyl-3′,5′-dichloro-1,1′-biphenyl-2-carboxamide], under 1000 nM.

For the origin of these results see patent publication US7291621B2, “Substituted biaryl amides C5a receptor modulators” (Neurogen Corporation, priority 2002, dated 2007).
